Like-named read-outs stand apart in the source and are kept apart here. Values belong to the molecule of their own block, whether it stands above or below them.
Experiments:
[1] = system: human breast cancer cell line MCF-7; test: MTT cytotoxicity assay, breast cancer MCF-7 cells; format: cell-based; settings: MCF-7, MTT
Protocol: (§1) The measurement was performed using the MTT assay in cultures treated with increasing concentrations.
(§2) The effect of the compounds applied to breast cancer MCF-7 cells and breast epithelial MCF-10A cells was evaluated by measuring 3-(4,5-dimethylthiazol-2-yl)-2,5-diphenyl tetrazolium bromide (MTT) (Invitrogen, Waltham, MA, USA). All compounds were diluted in dimethylsulfoxide (DMSO) with a final DMSO concentration of 0.01% (0.01 mL/100 mL × 100 = 0.01% means 0.01 mL of DMSO to 99.99 mL of water) in all groups and untreated controls. Cells were seeded in 96-well plates at a density of 5 × 10^3 cells per well and incubated with compounds diluted in serial concentrations ranging from 0.29 µM to 150 µM. After 24, 48, and 72 h at 37 °C and 5% CO2, 10 µL of MTT (5 mg/mL) was added to each well and incubated for 4 h at 37 °C. The supernatant was then removed, and 100 µL/well of DMSO was added to dissolve any deposited formazan. The optical density was measured at 570 nm using a microplate reader (DR-200B-NM_Kasuaki, Tokyo, Japan).

[2] = system: non-malignant breast epithelial cell line MCF-10A; test: MTT cytotoxicity assay, non-malignant MCF-10A cells; format: cell-based, human
Protocol: as §1, §2

[3] = system: the cells tested; design: method as in doi:10.1016/j.ica.2017.03.027; settings: related work; cited from earlier work
[4] = read-out: IC50 (Inhibitory Concentration 50%) ± SD at 24 h, 24 h
[5] = read-out: IC50 (Inhibitory Concentration 50%) ± SD at 48 h, 48 h

SMILES: C=CCSC1=NN=C(C)c2ccccc2[O][Ni]([P](c2ccccc2)(c2ccccc2)c2ccccc2)[S]1 [(1), [Ni(L^1)PPh3]]
IC50 [1, 4]: 12.82 ± 0.029 µM
IC50 [1, 5]: 22.71 ± 0.016 µM
IC50 ([1]; read-out: IC50 (Inhibitory Concentration 50%) ± SD at 72 h, 72 h): 18.07 ± 0.017 µM
IC50 [2, 4]: 25.47 ± 0.031 µM
IC50 [2, 5]: 28.43 ± 0.021 µM

melting point: 116 °C
SMILES: C=CCSC(=S)N/N=C(\C)c1ccccc1O [H2L^1, S-Allyl-2-(2-hydroxyphenyl-ethylidene)dithiocarbazato]
IC50 ([1]; Homo sapiens, MCF7, read-out: IC50 (Inhibitory Concentration 50%) ± SD at 24 h, 24 h): 88.85 ± 0.097 µM
IC50 ([1]; Homo sapiens, MCF7, read-out: IC50 (Inhibitory Concentration 50%) ± SD at 48 h, 48 h): 87.73 ± 0.042 µM
IC50 ([1]; Homo sapiens, MCF7, read-out: IC50 (Inhibitory Concentration 50%) ± SD at 72 h, 72 h): 28.49 ± 0.023 µM
IC50 ([2]; Homo sapiens, read-out: IC50 (Inhibitory Concentration 50%) ± SD at 24 h, 24 h): 65.44 ± 0.034 µM
IC50 ([2]; Homo sapiens, read-out: IC50 (Inhibitory Concentration 50%) ± SD at 48 h, 48 h): 62.86 ± 0.013 µM
IC50 ([2]; Homo sapiens, read-out: IC50 (Inhibitory Concentration 50%) ± SD at 72 h, 72 h): 62.86 ± 0.025 µM

melting point: 145 °C
SMILES: C/C(=N\NC(=S)SCc1ccccc1)c1ccccc1O [H2L^2, S-Benzyl-2-(2-hydroxyphenyl-ethylidene)dithiocarbazato]

SMILES: O.O.O.O.O.O.[Cl][Ni][Cl] [NiCl2⋅6H2O]
effect on cell proliferation or cell viability [3]: no substantial effect

Source: article PMC11206525, “Structural Design, Anticancer Evaluation, and Molecular Docking of Newly Synthesized Ni(II) Complexes with ONS-Donor Dithiocarbazate Ligands” (Molecules, 2024)
